# Test results as given in US9782395B2, “2,4-thiazolidinedione derivatives in the treatment of central nervous system disorders” (MINORYX THERAPEUTICS S.L., priority 2014, dated 2017).
# Where two headings read alike, the source gives them in different places.
# T1: Human recombinant monoamine oxidase MAO-A (Homo sapiens, UniProt P21397)
# T1 construct: purchased Sigma Aldrich M7316
# T1 sequence (P21397 1-527): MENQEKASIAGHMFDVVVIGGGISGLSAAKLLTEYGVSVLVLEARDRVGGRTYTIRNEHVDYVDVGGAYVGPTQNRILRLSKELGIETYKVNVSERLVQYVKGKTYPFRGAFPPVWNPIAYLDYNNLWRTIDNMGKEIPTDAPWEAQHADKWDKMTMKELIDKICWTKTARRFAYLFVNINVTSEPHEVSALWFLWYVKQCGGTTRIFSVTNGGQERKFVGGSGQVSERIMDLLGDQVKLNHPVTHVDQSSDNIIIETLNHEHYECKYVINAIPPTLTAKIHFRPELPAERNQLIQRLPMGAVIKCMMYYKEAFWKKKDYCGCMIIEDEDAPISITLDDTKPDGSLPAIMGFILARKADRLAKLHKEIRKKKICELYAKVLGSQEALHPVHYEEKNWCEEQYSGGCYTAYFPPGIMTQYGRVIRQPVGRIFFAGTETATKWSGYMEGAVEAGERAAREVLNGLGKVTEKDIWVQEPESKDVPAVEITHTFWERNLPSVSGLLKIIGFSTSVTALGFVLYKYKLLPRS
# T2: Human recombinant monoamine oxidase MAO-B (Homo sapiens, UniProt P27338)
# T2 construct: purchased Sigma Aldrich M7441
# T2 sequence (P27338 1-520): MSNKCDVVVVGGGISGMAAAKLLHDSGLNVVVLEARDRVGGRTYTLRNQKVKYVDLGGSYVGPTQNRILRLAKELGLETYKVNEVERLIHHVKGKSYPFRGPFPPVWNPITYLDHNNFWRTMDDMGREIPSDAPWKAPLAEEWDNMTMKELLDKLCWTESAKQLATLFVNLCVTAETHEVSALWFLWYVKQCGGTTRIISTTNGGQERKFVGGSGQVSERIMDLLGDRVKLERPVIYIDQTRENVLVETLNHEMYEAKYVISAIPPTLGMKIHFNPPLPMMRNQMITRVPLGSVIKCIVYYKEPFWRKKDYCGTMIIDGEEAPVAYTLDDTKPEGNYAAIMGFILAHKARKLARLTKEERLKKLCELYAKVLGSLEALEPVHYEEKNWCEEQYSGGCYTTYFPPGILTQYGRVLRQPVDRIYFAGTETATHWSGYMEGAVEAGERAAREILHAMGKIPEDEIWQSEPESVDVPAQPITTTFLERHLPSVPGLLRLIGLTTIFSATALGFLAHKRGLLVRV
# B1: BDNF: brain-derived neurotrophic factor, reference compound (protein, UniProt P23560 19-247, looked up)
# Neurotrophic factor BDNF …: APMKEANIRGQGGLAYPGVRTHGTLESVNGPKAGSRGLTSLADTFEHVIEELLDEDQKVRPNEENNKDADLYTSRVMLSSQVPLEPPLLFLLEEYKNYLDAANMSMRVRRHSDPARRGELSVCDSISEWVTAADKKTAVDMSGGTVTVLEKVPVSKGQLKQYFYETKCNPMGYTKEGCRGIDKRHWNSQCRTTQSYVRALTMDSKKRIGWRFIRIDTSCVCTLTIKRGR
# What was measured:
# [1] = Brain plasma ratio at Cmax after single oral dose of Pioglitazone; type: in vivo, male C57BL/6 mice; details: male, C57BL/6, mouse, single oral Pioglitazone 4.5 mg/kg, parent and metabolites quantified, read-out: percentage brain plasma ratio
# Description: The brain plasma ratios of Pioglitazone, MIV, MIII and MII following oral dosing of a single administration of Pioglitazone at 4.5 mg/kg in male C57BL/6 mice.
# The brain-plasma ratio was calculated based on levels of Pioglitazone, MIV, MIII and MII in plasma and brain quantified at C max (maximal concentration) following oral dosing of a single administration of Pioglitazone at 4.5 mg/kg in male C57BL/6 mice.
# [2] = diabetic preclinical models; cited from earlier work
# [3] = Brain plasma ratio from AUC of plasma and brain profiles after single oral dose of Pioglitazone or MIV; type: in vivo, male C57BL/6 mice; details: male, C57BL/6, mouse, single oral 4.5 mg/kg of the compound itself, read-out: percentage brain-plasma ratio
# Description: The brain plasma ratios of Pioglitazone and MIV and following oral dosing of a single administration of either Pioglitazone or M-IV both at 4.5 mg/kg in male C57BL/6 mice. […] The brain-plasma ratio was calculated based on the pharmacokinetics curves of plasma and brain concentration-time profiles calculated as area under the curves of Pioglitazone and following oral dosing of a single administration of either Pioglitazone or MIV both at 4.5 mg/kg in male C57BL/6 mice.
# [4] = system: Rat spinal cord (SC) motor neurons injured by glutamate; assay: Spinal cord motor neurons injured by glutamate, survival by MAP-2 immunostaining; type: cell-based; details: 1 μM, glutamate 10 μM 20 min, 48 hours, p<0.05
# Description: Protocol: Rat spinal cord (SC) motor neurons were cultured as described by Martinou (Neuron. 1992 April; 8(4):737-44) and Wang (PLoS Genet. 2013; 9(9)). Briefly, pregnant female rats of 14 days gestation were killed by cervical dislocation and foetuses were collected and immediately placed in ice-cold L15 Leibovitz medium. Spinal cord was treated for 20 min at 37° C. with a trypsin-EDTA. The dissociation was stopped by addition of Dulbecco's modified Eagle's medium (DMEM) with glucose (Pan Biotech), containing DNAse I and 10% fetal calf serum (FCS). Cells were mechanically dissociated and they were then centrifuged. The pellet was resuspended in a defined culture medium with 10 ng/ml of brain-derived neurotrophic factor (BDNF). The cells were seeded in 96-well plates precoated with poly-L-lysine and were cultured at 37°. The medium was changed every 2 days.
# Briefly, on day 13 of culture, BDNF or test compound was pre-incubated with primary Spinal cord (SC) motor neurons for 1 hour before glutamate exposure. Glutamate was added to a final concentration of 10 μM diluted in control medium in presence of BDNF or test compound for 20 min. […]
# For each condition 6 wells were assessed, 30 pictures per well were taken using ImageXpress (Molecular Device) with 20× magnification. […]
# [5] = biological target: T1, Human recombinant monoamine oxidase MAO-A; assay: MAO-A inhibition, kynuramine fluorescence assay; type: biochemical
# Text: (§1) Protocol: Human recombinant monoamine oxidase proteins MAO-A and MAO-B were purchased from Sigma Aldrich (Reference M7316 and M7441 respectively). In order to monitor the MAO enzymatic activities and their inhibition rate a fluorescence based assay was used. The substrate for the assay, kynuramine, is non-fluorescent until undergoing oxidative deamination by MAOs resulting in the fluorescent product 4-hydroxyquinoline. Kynuramine is a substrate for both MAO-A and -B (non-specific substrate). Clorgiline and Deprenyl (Sigma Aldrich) were used as controls for specific inhibition of MAO-A and MAO-B respectively.
# [6] = biological target: T2, Human recombinant monoamine oxidase MAO-B; assay: MAO-B inhibition, kynuramine fluorescence assay; type: biochemical
# Text: as §1
# [7] = Pharmacokinetic profile and brain distribution after single oral and intravenous dose; type: in vivo, male C57 BL/6 mice
# Description: Protocol: Pharmacokinetic parameters and brain distribution of 5-(4-(2-(5-(1-hydroxyethyl)pyridine-2-yl)ethoxy)benzyl)thiazolidine-2,4-dione (racemate or stereoisomers) following single oral (4.5 mg/kg) and intravenous (1 mg/kg) dose administration to male C57 BL/6 mice were determined. Blood samples and brain samples were collected pre-dosing and different times post dosing for both oral and i.v pharmacokinetics. All samples were processed for analysis by protein precipitation using acetonitrile and analyzed with fit-for-purpose LC/MS/MS method. The lower limit of quantification (LLOQ) in plasma and brain for 5-(4-(2-(5-(1-hydroxyethyl)pyridine-2-yl)ethoxy)benzyl)thiazolidine-2,4-dione (1) is 0.99 ng/mL. Pharmacokinetic parameters were calculated using the non-compartmental analysis tool of Phoenix WinNonlin.
# [8] = system: primary rat cortical neurons injured by glutamate; assay: Primary cortical neurons injured by glutamate, survival by MTT; type: cell-based
# Description: Protocol: Rat cortical neurons were cultured as described by Singer (J Neurosci. 1999 Apr. 1; 19(7):2455-63) and Callizot (J Neurosci Res. 2013 May; 91(5):706-16).
# Foetuses were collected and immediately placed in ice-cold Leibovitz medium. Cortex was treated with a trypsin-EDTA solution and the dissociation was stopped by addition of Dulbecco's modified Eagle's medium (DMEM) with glucose (Pan Biotech), containing DNAse I and 10% fetal calf serum (FCS). Cells were mechanically dissociated and centrifuged. The pellet was resuspended in a defined culture medium with 10 ng/ml of brain-derived neurotrophic factor (BDNF). The cells were seeded in 96-well plates precoated with poly-L-lysine and were cultured at 37°. The medium was changed every 2 days. The cortical neurons were intoxicated with glutamate after 13 days of culture.
# Briefly, on day 13 of culture, BDNF and test compound were pre-incubated with primary cortical neurons for 1 hour before glutamate exposure. Glutamate was added to a final concentration of 40 μM diluted in control medium in presence of BDNF or test compound for 20 min.
# After 20 min, glutamate was washed out and fresh culture medium with BDNF or test compound was added for additional 48 hours. The survival evaluation was done by a MTT assay performed with CellTiter 96® Aqueous One Solution Cell Proliferation Assay (Promega).
# [9] = system: experimental autoimmune encephalomyelitis (EAE)
# [10] = system: X-linked adrenoleukodystrophy fibroblasts; assay: X-ALD patient fibroblasts, cell survival (MTT); type: cell-based, human; details: at 3, M, vs non-treated, 24 hours
# Description: Human control and X-linked adrenoleukodystrophy fibroblasts were obtained from Coriell (Candem, USA). Cells were grown in Dulbecco's modified Eagle medium containing 10% foetal bovine serum, 100 U/ml penicillin and […], at 37° C. in humidified 95% air/5% CO2, to 80-90% confluence. To perform our experiments, Dulbecco's modified Eagle medium without D-glucose, pyruvate or L-glutamine was used. Cells were cultured in this medium supplemented with 1 g/l of glucose or 1 g/l of galactose and 10% foetal bovine serum for 24 hours incubated with increasing doses of MIV (3, 10 and 30 μM).
# The determination of MTT was performed as described by Mosmann J. Immunol. Methods 1983, 65, 55-63 and by Hansen J. Immunol. Methods 1989; 119, 203-210. This method is based on the ability of viable but not dead cells to convert the tetrazolium salt (MTT) to colored formazan.
# For the determination of ATP levels, 2×10^4 cells/well were seeded in 96 well cell culture plate in complete medium. After 16-18 h cells, were lysed in 20 μl lysis buffer and 10 μl of lysate was used to measure ATP levels using ATP determination Kit (Molecular Probes, Invitrogen). 1 μl each of the remaining lysate was used for protein measurement.
molecule,measurement,setting,value
CCc1ccc(C(O)COc2ccc(CC3SC(=O)NC3=O)cc2)nc1 (stereo not shown) [MII],Kp,[1]; in vivo,0.01
same,pharmacological activity relative to Pioglitazone,[2],less active than Pioglitazone
"CCc1ccc(CCOc2ccc(CC3SC(=O)NC3=O)cc2)nc1 (stereo not shown) [Pioglitazone, reference compound]",Kp,[1]; brain and plasma,0.09
same,Kp,[3],0.08
"CC(O)c1ccc(CCOc2ccc(CC3SC(=O)NC3=O)cc2)nc1 (racemic) [compound (1), 5-[4-[2-(5-(1-hydroxyethyl)-2-pyridinyl)ethoxy]benzyl]-2,4-thiazolidinedione]",Kp,[1]; brain and plasma,0.13
same,effect on cell survival vs the control with glutamate,[4],protective effect
same,inhibition of MAO A protein,[5],did not inhibit
same,Kp,[3],0.12
same,IC50,[6],70.5 nM
same,brain concentrations observed until,[7]; both intravenous and oral profiles,8 h
same,Kp,"[7]; male, mouse, brain and plasma, C57BL/6 mice, single oral 4.5 mg/kg / i.v. 1 mg/kg, read-out: brain-to-plasma exposure (AUClast) ratio",0.12
same,bioavailability,"[7]; male, mouse, plasma, oral 4.5 mg/kg vs i.v. 1 mg/kg, C57BL/6 mice",85%
same,clearance,"[7]; male, mouse, plasma, single intravenous 1 mg/kg, C57BL/6 mice, read-out: systemic plasma clearance",11.8 mL/min/kg
same,half-life,"[7]; male, mouse, plasma, single intravenous 1 mg/kg, C57BL/6 mice, read-out: terminal elimination plasma half-life (converted)",107 min
same,Tmax,"[7]; male, mouse, plasma, single oral 4.5 mg/kg, C57BL/6 mice, read-out: Tmax in plasma",30 min
same,Tmax,"[7]; male, mouse, C57BL/6 mice, brain, read-out: Tmax in brain",30 min
same,plasma concentrations observed until,"[7]; single oral 4.5 mg/kg, 1 animal",24 h
same,"protective effect on glutamate injury (survival, MTT)","[8]; 3 μM, glutamate 40 μM 20 min, 48 hours",full protective effect
same,development and severity of EAE (clinical scores),"[9]; bid from day 5 post immunization for 15 days, three increasing doses",reduces the development and severity
same,body weight loss associated to treatment,"[9]; mouse, in vivo",No body weight loss
same,hematological toxicity associated to treatment,"[9]; mouse, in vivo",no significant hematological toxicity
same,increase in cell survival,[10],20%
"CC(=O)c1ccc(CCOc2ccc(CC3SC(=O)NC3=O)cc2)nc1 (stereo not shown) [MIII, 5-(4-(2-(5-acetyl-2-pyridyl)ethoxy)benzyl)-2,4-thiazolidinedione]",Kp,[1]; brain and plasma,0.07
same,pharmacological activity relative to Pioglitazone,[2],less active than Pioglitazone
B1,"protective effect on glutamate injury (survival, MTT)","[8]; 50 ng/ml, reference compound",full protective effect
